# Assay results published in PubChem BioAssay (NCI).
# Where “and” joins values, the source holds several entries; their conditions need not be identical. Equal entries are not always repeated.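 Five compound concentrations were applied to cells in 96-well plates for 48 hours; endpoints were derived by simple linear interpolation of the resulting dose-response curve. Abbreviation: GI50, concentration required for 50% inhibition of growth. TGI marks complete inhibition of growth.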
# Tests used:
# Experiment in all cases: inhibition of tumour cell growth, NCI panel, 48 h
# MDA-MB-435 = system: MDA-MB-435
# SNB-19 CNS = system: SNB-19 CNS
# NCI-H522 lung = system: NCI-H522 lung
# NCI-H460 lung = system: NCI-H460 lung
# A498 renal = system: A498 renal
# HL-60(TB) leukemia = system: HL-60(TB) leukemia
# PC-3 prostate = system: PC-3 prostate
# EKVX NSCLC = system: EKVX NSCLC
# SK-OV-3 ovarian = system: SK-OV-3 ovarian
# SF-295 CNS = system: SF-295 CNS
SMILES,GI50 (MDA-MB-435) [µM],TGI (MDA-MB-435),GI50 (SNB-19 CNS) [µM],TGI (SNB-19 CNS),GI50 (NCI-H522 lung) [µM],TGI (NCI-H522 lung),TGI (NCI-H460 lung),TGI (A498 renal),GI50 (HL-60(TB) leukemia) [µM],TGI (HL-60(TB) leukemia),GI50 (PC-3 prostate) [µM],TGI (PC-3 prostate),GI50 (EKVX NSCLC) [µM],TGI (EKVX NSCLC),GI50 (SK-OV-3 ovarian) [µM],TGI (SK-OV-3 ovarian),GI50 (SF-295 CNS) [µM],TGI (SF-295 CNS),GI50 (NCI-H460 lung) [µM],GI50 (A498 renal) [µM]
CC(=O)NC(CS)C(=O)O (configuration not stated),> 100,> 100 µM and 61900 µM,> 100,> 100 µM,> 100,> 100 µM and 46300 µM,62300 µM,18500 µM,> 100,> 100 µM,> 100,> 100 µM,> 100,> 100 µM and 87600 µM,> 100,> 100 µM,> 100,> 100 µM and 57700 µM,,
CCNC(=O)Oc1ccc(/C(=C(\C)c2ccc(Cl)cc2)c2ccc(OCCN(CC)CC)cc2)cc1,3.44,12.8 µM,3.13,8.45 µM,13.3,28.1 µM,4.16 µM,29.6 µM,1.79,4.37 µM,3.89,14.1 µM,10.3,23.6 µM,10.7,22.8 µM,1.85,4.12 µM,2.09,14.3
COc1cc(-c2cc(-c3cccs3)c(C#N)c(N3CCOCC3)n2)cc(OC)c1OC,> 47.9,> 100 µM,> 76.1,> 100 µM,10.3,> 100 µM,> 28.5 µM,> 43.1 µM,3.12,29.7 µM,5.29,> 100 µM,24.2,> 100 µM,> 50.3,> 100 µM,2.87,9.01 µM,3.06,2.43
CC(=O)OC1CC2C(C)(C)CCC[C@]2(C)C2=C1C(O)=C(C(C)C)C(=O)C2=O (some centres not stated),0.335,1.72 µM,0.646,> 46 µM,1.65,3.42 µM,1.69 µM,1.79 µM,0.613,4.23 µM,0.731,5.12 µM,0.3,1.53 µM,2.59,> 28.4 µM,0.644,2.57 µM,0.354,0.402
C=C1C[C@@H](O)[C@@H](Br)C(C)(C)[C@]12CCC(C)(Br)C(Cl)C2 (some centres not stated),18,> 50 µM and 35.8 µM,17.6,> 50 µM and 33.2 µM,17.4,> 50 µM and 32.1 µM,> 50 µM and 32.4 µM,> 50 µM and 31.9 µM,,11.8 µM,0.107,10.8 µM and 2.29 µM,2.54,50 µM and 15.2 µM,24,> 50 µM and 64.6 µM,17.9,> 50 µM and 34.9 µM,18,18
CCC1(OC(=O)CNC)C(=O)OCc2c1cc1n(c2=O)Cc2cc3ccccc3nc2-1 (configuration not stated),,0.279 µM,,6.12 µM,,0.285 µM,0.399 µM,0.104 µM,,0.159 µM,,> 100 µM,,17 µM,,0.152 µM,,,,
C=C[C@H]1CN2CCc3c([nH]c4c([C@@H]5CCCN5C)c(O)ccc34)[C@@H]2C[C@@H]1C[C@H]1c2[nH]c3ccccc3c2CCN1C,1.71,2.99 µM and 2.95 µM and 3.15 µM,1.09,3.5 µM and 2.33 µM and 3.2 µM,,3.66 µM,3.1 µM and 2.99 µM,3.11 µM and 3.44 µM,,2.06 µM and 1.85 µM and 1.9 µM,,3.05 µM and 2.88 µM,,2.94 µM and 3.07 µM,2.03,3.23 µM [middle of 4 runs],,3.05 µM,,
O=C(Nc1ccn(C2CC(I)C(COC(c3ccccc3)(c3ccccc3)c3ccccc3)O2)c(=O)n1)c1ccccc1 (configuration not stated),,15.7 µM,,21.5 µM,,21.5 µM,14.1 µM,13 µM,,21.5 µM,,20.9 µM,,21.5 µM,,21.5 µM,,21.5 µM,,
O=C(O)c1ccc(NCc2nc3ccccc3[nH]2)cc1,> 100,> 100 µM,> 100,> 100 µM,> 100,> 100 µM,> 100 µM,> 100 µM,> 100,> 100 µM,> 100,> 100 µM,> 100,> 100 µM,> 100,> 100 µM,> 100,> 100 µM,> 100,
O=C(Nc1ccc(Oc2ccc(NC(=O)Nc3ccccc3Cl)cc2)cc1)Nc1ccccc1Cl,> 100,> 100 µM,17,43.8 µM,7.91,42.6 µM,> 100 µM,64.3 µM,14.8,32.4 µM,2.11,,16.4,> 100 µM,9.33,38.1 µM,6.81,33.9 µM,2.49,22.2
COc1ccc2nc3cc(Cl)ccc3c(NCCNCC(O)CO)c2c1 (configuration not stated),1.44,4.61 µM,1.29,12.6 µM,0.984,3.93 µM,3.33 µM,2.64 µM,2.83,7 µM,2.34,10.7 µM,3.33,13.1 µM,2.43,7.95 µM,2.33,12.3 µM,0.631,0.245
CCC(CC)c1cc(N[C@H]2CC[C@H](N)C2)n2nccc2n1,1.38,3.76 µM,1.06,> 100 µM,0.281,1.55 µM,> 100 µM,> 100 µM,0.324,14.9 µM,2.43,> 100 µM,1.7,5.16 µM,3.44,> 100 µM,1.83,> 100 µM,0.358,2.53
CC1NC(C(=O)O)Cc2cc(O)c(O)cc21 (configuration not stated),,> 100 µM,,> 100 µM,,> 100 µM,> 100 µM,> 100 µM,,> 100 µM,,> 100 µM,,> 100 µM,,> 100 µM,,> 100 µM,,
NC(=O)c1cc(I)ccc1NC(=O)/C=C/c1ccccc1Cl,0.204,0.578 µM,0.869,> 47.2 µM,0.334,1.64 µM,4.7 µM,8.01 µM,0.158,0.631 µM,0.572,> 35.4 µM,1.33,> 69 µM,0.529,14.9 µM,0.592,19 µM,0.413,0.483
